According to patent publication US9695155B2, “Herbicidal substituted pyrimidinyloxy benzene compounds” (E. I. DU PONT DE NEMOURS AND COMPANY, priority 2013, dated 2017):

Experiments:
large (Lg) crabgrass = experiment: Test A preemergence; format: in vivo, Digitaria sanguinalis
Method in brief: (§1)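 Scoring: eye-based comparison with untreated controls, 0 for no effect through 100 for complete control, at about day 10. Treatments: directed soil spray preemergence; foliar spray postemergence on 2–10 cm plants at the one- to two-leaf stage. Medium: loam soil with sand.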

giant foxtail = experiment: Test C postemergence; format: in vivo, Setaria faberii
Method in brief: (§2)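 Whole-plant greenhouse test with surfactant-containing solvent formulation, applied preemergence to sown loam–sand pots or postemergence to 2–18 cm plants. Scored by eye 13 to 15 days on, 0–100 scale.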

barnyardgrass = experiment: Test C postemergence; format: in vivo, Echinochloa crus-galli
Method in brief: as §2

pigweed = experiment: Test A preemergence; format: in vivo, Amaranthus retroflexus
Method in brief: as §1

wheat, winter = experiment: Test C postemergence; format: in vivo, Triticum aestivum
Method in brief: as §2

yellow nutsedge = experiment: Test C postemergence; format: in vivo, Cyperus esculentus
Method in brief: as §2

corn = experiment: Test C postemergence; format: in vivo, Zea mays
Method in brief: as §2

wild oat = experiment: Test C postemergence; format: in vivo, Avena fatua
Method in brief: as §2

blackgrass = experiment: Test C postemergence; format: in vivo, Alopecurus myosuroides
Method in brief: as §2

chickweed = experiment: Test C postemergence; format: in vivo, Stellaria media
Method in brief: as §2

[1] = 31 g ai/ha, postemergence, visual rating, scale 0 to 100 (0 no effect, 100 complete control), 13 to 15 days
[2] = 16 g ai/ha, postemergence, visual rating, scale 0 to 100 (0 no effect, 100 complete control), 13 to 15 days
[3] = Postemergence, 31 g ai/ha, scale 0 to 100 (0 no effect, 100 complete control), 13 to 15 days
[4] = Postemergence, 62 g ai/ha, scale 0 to 100 (0 no effect, 100 complete control)

## Fc1cccc(Oc2ncc(Cl)cn2)c1-n1cc(Br)cn1 [Compound 178, 2-[2-(4-bromo-1H-pyrazol-1-yl)-3-fluorophenoxy]-5-chloropyrimidine]
Large (Lg) crabgrass; Digitaria sanguinalis, pre-emergence, 240 h, 125 g ai/ha, 0 to 100 scale where 0 is no effect and 100 is complete control, read-out: Plant response rating, Crabgrass, Large
  pest or weed control at 125 g/ha: 100%
Large (Lg) crabgrass; Digitaria sanguinalis, pre-emergence, 240 h, 500 g ai/ha, 0 to 100 scale where 0 is no effect and 100 is complete control, read-out: Crabgrass, Large plant response rating
  pest or weed control at 500 g/ha: 100%
Giant foxtail; Setaria faberi, post-emergence, 16 g ai/ha, postemergence, 0 is no effect, 100 is complete control, read-out: Plant response rating (0 to 100), Foxtail, Giant
  pest or weed control at 16 g/ha: 5%
Giant foxtail; Setaria faberi, post-emergence, 31 g ai/ha, postemergence, visual rating, scale 0 to 100 (0 no effect, 100 complete control), 13 to 15 days, read-out: Foxtail, Giant plant response rating
  pest or weed control at 31 g/ha: 5%
Giant foxtail; Setaria faberi, post-emergence, 125 g ai/ha, postemergence, visual rating, scale 0 to 100 (0 no effect, 100 complete control), read-out: Plant response rating, Foxtail, Giant
  pest or weed control at 125 g/ha: 25%
Giant foxtail; Setaria faberi, post-emergence, Postemergence, 62 g ai/ha, scale 0 to 100 (0 no effect, 100 complete control), read-out: Plant response rating, Foxtail, Giant
  pest or weed control at 62 g/ha: 5%
barnyardgrass; Echinochloa crus-galli, post-emergence, 16 g ai/ha, postemergence, 0 is no effect, 100 is complete control, read-out: Plant response rating (0 to 100), Barnyardgrass
  pest or weed control at 16 g/ha: 5%
barnyardgrass; Echinochloa crus-galli, post-emergence, 31 g ai/ha, postemergence, visual rating, scale 0 to 100 (0 no effect, 100 complete control), 13 to 15 days, read-out: Barnyardgrass plant response rating
  pest or weed control at 31 g/ha: 5%
barnyardgrass; Echinochloa crus-galli, post-emergence, 125 g ai/ha, postemergence, visual rating, scale 0 to 100 (0 no effect, 100 complete control), read-out: Plant response rating, Barnyardgrass
  pest or weed control at 125 g/ha: 10%
barnyardgrass; Echinochloa crus-galli, post-emergence, Postemergence, 62 g ai/ha, scale 0 to 100 (0 no effect, 100 complete control), read-out: Plant response rating, Barnyardgrass
  pest or weed control at 62 g/ha: 5%
pigweed; 125 g ai/ha
  Pigweed plant response rating (0 to 100 scale): 100
pigweed; Amaranthus retroflexus, pre-emergence, 240 h, 500 g ai/ha, 0 to 100 scale where 0 is no effect and 100 is complete control, read-out: Pigweed plant response rating
  pest or weed control at 500 g/ha: 100%
wheat, winter; [1]
  Wheat plant response rating: 0
wheat, winter; Triticum aestivum, post-emergence, 16 g ai/ha, postemergence, 0 is no effect, 100 is complete control, read-out: Plant response rating (0 to 100), Wheat
  plant injury at 16 g/ha: 0%
wheat, winter; Triticum aestivum, post-emergence, 125 g ai/ha, postemergence, visual rating, scale 0 to 100 (0 no effect, 100 complete control), read-out: Plant response rating, Wheat
  plant injury at 125 g/ha: 0%
wheat, winter; Triticum aestivum, post-emergence, Postemergence, 62 g ai/ha, scale 0 to 100 (0 no effect, 100 complete control), read-out: Plant response rating, Wheat
  plant injury at 62 g/ha: 0%
Yellow nutsedge; [1]
  Nutsedge, Yellow plant response rating: 5
Yellow nutsedge; Cyperus, post-emergence, 16 g ai/ha, postemergence, 0 is no effect, 100 is complete control, read-out: Plant response rating (0 to 100), Nutsedge, Yellow
  pest or weed control at 16 g/ha: 5%
Yellow nutsedge; Cyperus, post-emergence, 125 g ai/ha, postemergence, visual rating, scale 0 to 100 (0 no effect, 100 complete control), read-out: Plant response rating, Nutsedge, Yellow
  pest or weed control at 125 g/ha: 10%
Yellow nutsedge; Cyperus, post-emergence, Postemergence, 62 g ai/ha, scale 0 to 100 (0 no effect, 100 complete control), read-out: Plant response rating, Nutsedge, Yellow
  pest or weed control at 62 g/ha: 5%
corn; Zea mays, post-emergence, 16 g ai/ha, postemergence, 0 is no effect, 100 is complete control, read-out: Plant response rating (0 to 100), Corn
  plant injury at 16 g/ha: 5%
corn; Zea mays, post-emergence, 31 g ai/ha, postemergence, visual rating, scale 0 to 100 (0 no effect, 100 complete control), 13 to 15 days, read-out: Corn plant response rating
  plant injury at 31 g/ha: 10%
corn; Zea mays, post-emergence, 125 g ai/ha, postemergence, visual rating, scale 0 to 100 (0 no effect, 100 complete control)
  Corn plant response rating (crop injury, 0 = no effect, 100 = complete kill) at 125 g/ha: 10%
corn; Zea mays, post-emergence, Postemergence, 62 g ai/ha, scale 0 to 100 (0 no effect, 100 complete control)
  Corn plant response rating (crop injury, 0 = no effect, 100 = complete kill) at 62 g/ha: 10%
Wild oat; [1]
  Oat, Wild plant response rating: 0
Wild oat; Avena fatua, post-emergence, 16 g ai/ha, postemergence, 0 is no effect, 100 is complete control, read-out: Plant response rating (0 to 100), Oat, Wild
  pest or weed control at 16 g/ha: 0%
Wild oat; Avena fatua, post-emergence, 125 g ai/ha, postemergence, visual rating, scale 0 to 100 (0 no effect, 100 complete control), read-out: Plant response rating, Oat, Wild
  pest or weed control at 125 g/ha: 30%
Wild oat; Avena fatua, post-emergence, Postemergence, 62 g ai/ha, scale 0 to 100 (0 no effect, 100 complete control), read-out: Plant response rating, Oat, Wild
  pest or weed control at 62 g/ha: 10%
blackgrass; Alopecurus myosuroides, post-emergence, 16 g ai/ha, postemergence, 0 is no effect, 100 is complete control, read-out: Plant response rating (0 to 100), Blackgrass
  pest or weed control at 16 g/ha: 0%
blackgrass; Alopecurus myosuroides, post-emergence, 31 g ai/ha, postemergence, visual rating, scale 0 to 100 (0 no effect, 100 complete control), 13 to 15 days, read-out: Blackgrass plant response rating
  pest or weed control at 31 g/ha: 5%
blackgrass; Alopecurus myosuroides, post-emergence, 125 g ai/ha, postemergence, visual rating, scale 0 to 100 (0 no effect, 100 complete control), read-out: Plant response rating, Blackgrass
  pest or weed control at 125 g/ha: 60%
blackgrass; Alopecurus myosuroides, post-emergence, Postemergence, 62 g ai/ha, scale 0 to 100 (0 no effect, 100 complete control), read-out: Plant response rating, Blackgrass
  pest or weed control at 62 g/ha: 20%
chickweed; Stellaria media, post-emergence, 16 g ai/ha, postemergence, 0 is no effect, 100 is complete control, read-out: Plant response rating (0 to 100), Chickweed
  pest or weed control at 16 g/ha: 40%
chickweed; Stellaria media, post-emergence, 31 g ai/ha, postemergence, visual rating, scale 0 to 100 (0 no effect, 100 complete control), 13 to 15 days, read-out: Chickweed plant response rating
  pest or weed control at 31 g/ha: 50%
chickweed; Stellaria media, post-emergence, 125 g ai/ha, postemergence, visual rating, scale 0 to 100 (0 no effect, 100 complete control), read-out: Plant response rating, Chickweed
  pest or weed control at 125 g/ha: 80%
chickweed; Stellaria media, post-emergence, Postemergence, 62 g ai/ha, scale 0 to 100 (0 no effect, 100 complete control), read-out: Plant response rating, Chickweed
  pest or weed control at 62 g/ha: 65%

## Clc1cnc(Oc2cccc(Br)c2-n2cc(Br)cn2)nc1 [Compound 65]
Large (Lg) crabgrass; 1000 g ai/ha, 0 to 100 scale, 0 no effect, 100 complete control
  Plant response rating, Crabgrass, Large: 100
Giant foxtail; [2]
  Foxtail, Giant plant response rating: 5
Giant foxtail; 125 g ai/ha, postemergence
  Plant response rating (0 to 100), Foxtail, Giant: 10
Giant foxtail; [3]
  Plant response rating, Foxtail, Giant: 10
Giant foxtail; [4]
  Plant response rating, Foxtail, Giant: 10
barnyardgrass; [2]
  Barnyardgrass plant response rating: 5
barnyardgrass; 125 g ai/ha, postemergence
  Plant response rating (0 to 100), Barnyardgrass: 10
barnyardgrass; [3]
  Plant response rating, Barnyardgrass: 5
barnyardgrass; [4]
  Plant response rating, Barnyardgrass: 5
pigweed; 1000 g ai/ha, 0 to 100 scale, 0 no effect, 100 complete control, approx. 10 days
  Pigweed plant response rating: 100
wheat, winter; 125 g ai/ha, postemergence
  Plant response rating (0 to 100), Wheat: 10
wheat, winter; [3]
  Plant response rating, Wheat: 0
wheat, winter; [4]
  Plant response rating, Wheat: 5
Yellow nutsedge; 125 g ai/ha, postemergence
  Plant response rating (0 to 100), Nutsedge, Yellow: 15
Yellow nutsedge; [3]
  Plant response rating, Nutsedge, Yellow: 5
Yellow nutsedge; [4]
  Plant response rating, Nutsedge, Yellow: 5
corn; [2]
  Corn plant response rating: 5
corn; 125 g ai/ha, postemergence
  Plant response rating (0 to 100), Corn: 10
corn; [3]
  Plant response rating, Corn: 10
corn; [4]
  Plant response rating, Corn: 10
Wild oat; 125 g ai/ha, postemergence
  Plant response rating (0 to 100), Oat, Wild: 5
Wild oat; [3]
  Plant response rating, Oat, Wild: 0
Wild oat; [4]
  Plant response rating, Oat, Wild: 5
blackgrass; [2]
  Blackgrass plant response rating: 0
blackgrass; 125 g ai/ha, postemergence
  Plant response rating (0 to 100), Blackgrass: 15
blackgrass; [3]
  Plant response rating, Blackgrass: 10
blackgrass; [4]
  Plant response rating, Blackgrass: 40
chickweed; [2]
  Chickweed plant response rating: 60
chickweed; 125 g ai/ha, postemergence
  Plant response rating (0 to 100), Chickweed: 98
chickweed; [3]
  Plant response rating, Chickweed: 50
chickweed; [4]
  Plant response rating, Chickweed: 70
